Assay results as given in US9068970B2, “Efficient and effective supplement screening for the development of chemically defined media in cell culture” (Abbvie Inc., priority 2010, dated 2015).
Read-outs that look alike come from different tables or passages of the source. Where a SMILES comes first, the peptide text is derived from it.

Tests used:
Type in all cases: cell-based
[1] = test system: recombinant IgG producing Chinese Hamster Ovary cell line (CHO cell line #1); experiment: 24-well plate media supplement screening: peak viable cell density (CellTiter 96 AQueous)
Procedure: (§1) 24-well plates were utilized at a working volume of 1.5 mL per well to serve as the platform for media supplement screening. An in-house, base chemically defined media (CDM #1) was used as the basal media for the purposes of the experiments. A recombinant IgG producing Chinese Hamster Ovary cell line (CHO cell line #1) was used for the media supplement screening phase of the experiments.
All 24-well plate screening experiments were designed using JMP7 commercially available statistics software (Cary, N.C.) using custom experimental options. Six individual media supplement screening experiments were performed to test over a hundred different supplements in statistically designed experiments and in a serial fashion. All screening experiments were performed at […] cultured at 210 rpm on a shaker table in a 5% humidified CO2 incubator. Gas permeable, rayon film plate covers (VWR International, Radnor, Pa., Catalog #60941-086) were employed as necessary to provide a sterile barrier between the well plates, the plastic plate cover, and the culture atmosphere. Supplement solutions were manually pipetted into the respective plate wells using concentrated, sterile stock solutions. The comprehensive list of media supplements evaluated for cell culture process improvement is shown below in Table 2:
(§2) Two cell culture performance indicators were measured in the high-throughput screening experiments: peak viable cell density and harvest titer. Time point samples were withdrawn from each of the respective plate wells on Days 6, 7, and 8 post inoculation and measured for their respective viable cell densities spectrophotometrically via the CellTiter 96 AQueous Solution Cell Proliferation Assay Kits™ (Promega, Madison, Wis.). Harvest Titer measurements were conducted via high performance liquid chromatography (HPLC) with a Poros A™ affinity column (Applied Biosystems, Foster City, Calif.). All experimental wells supplemented with a particular combination of media compounds were compared to an unsupplemented control, with the results expressed as relative values relative to the control.
(§3) Two cell culture performance indicators were measured in the high-throughput screening experiments as well as media verification experiments; peak viable cell density (VCD) and harvest titer. […] A few days after the last cell count measurement sample the plates were centrifuged and the supernatant was collected and stored at −80° C. for future analysis. Harvest titer measurements were conducted via high performance liquid chromatography (HPLC) with a Poros A™ affinity column (Applied Biosystems, Foster City, Calif.). All experimental wells supplemented with a particular combination of media compounds were compared to an unsupplemented control, with the results expressed as values relative to the control. For the media verification experiments in larger-scale shaker and spinner flasks, viable cell density and viability were measured via Cedex automated cell counters (Roche Applied Science, Indianapolis, Ind.). Harvest titer measurements were similarly measured via HPLC.
(§4) Standard Analysis of Variance (ANOVA) was used to measure the significance of individual supplements and their respective interactions towards the resulting cell culture technique performance. Individual analyses were conducted on both peak viable cell density and harvest titer for each of the respective screening experiments. Three different levels of each media supplement were used in these experiments: unsupplemented (Level 1), lightly supplemented (Level 2), and heavily supplemented (Level 3). […] The optimization subroutine intrinsic to the statistics software was used to analyze the screening dataset determine the identity of a high performance media blend. It is important to note that the selection method is a mathematical exercise which can lead to multiple blends identified as having the highest performance parameters, and the results are highly dependent on the initial first guess.

[2] = test system: recombinant IgG producing Chinese Hamster Ovary cell line (CHO cell line #1); experiment: 24-well plate media supplement screening: harvest titer (HPLC, Poros A affinity column)
Procedure: as §1
All 24-well plate screening experiments were designed using JMP7 commercially available statistics software (Cary, N.C.) using custom experimental options. Six individual media supplement screening experiments were performed to test over a hundred different supplements in statistically designed experiments and in a serial fashion. […] Supplement solutions were manually pipetted into the respective plate wells using concentrated, sterile stock solutions. The comprehensive list of media supplements evaluated for cell culture process improvement is shown below in Table 2:
as §2, §3, §4
The aforementioned supplements were evaluated for improvements in cell culture technique performance.

[3] = test system: recombinant IgG producing Chinese Hamster Ovary cell line (CHO cell line #1); experiment: Supplement screening: process performance (peak VCD and/or harvest titer) by inspectional/statistical analysis
Procedure: as §4, with “guess. Three particular high performance blends were identified for further evaluation: […] The supplements whose relative concentrations supported a distinct pattern of either increasing or decreasing process performance were categorized into the clustered classification. […] These supplements were either compounds or groups of similar compounds such as polyamines, essential amino acids, and vitamins.” for “guess.”

[4] = test system: recombinant IgG producing Chinese Hamster Ovary cell line (CHO cell line #1); experiment: JMP7 statistical identification of high performance media supplementation from a 15-supplement screening experiment
Procedure: as §4
Fifteen of these supplements, or groups of supplements, were screened in a separate statistically designed experiment for the final determination of high performance media blends for the maximization of peak VCD, harvest titer, and both of these variables simultaneously.
The JMP7 statistical software program was further used to identify the high performance media supplementation for maximizing peak VCD, harvest titer, and both simultaneously.

[5] = HTS experiments, CDM #1, relative to unsupplemented control
[6] = univariate analysis of varying supplement concentrations
[7] = range given, variability in culture volumes
[8] = predicted amount for addition into the unsupplemented control media

OC[C@H]1O[C@H](O[C@H]2[C@H](O)[C@@H](O)C(O)O[C@@H]2CO)[C@H](O)[C@@H](O)[C@@H]1O (mixture of isomers) [Maltose]
Effect on Peak VCD [1, 5]: No change | Effect on Harvest Titer [2, 5]: Increase | Process Performance Pattern [3, 6]: Wide dispersal

CCCCC/C=C\C/C=C\C/C=C\C/C=C\CCCC(=O)O [Arachidonic acid]
Effect on Peak VCD [1, 5]: Decrease | Effect on Harvest Titer [2, 5]: Decrease

O=C(O)CCCC[C@@H]1SC[C@@H]2NC(=O)N[C@@H]21 [Biotin]
Effect on Peak VCD [1, 5]: No change | Effect on Harvest Titer [2, 5]: No change

C[N+](C)(C)CCO.[Cl-] [Choline chloride]
Effect on Peak VCD [1]: No change | Effect on Harvest Titer [2]: No change | Process Performance Pattern [3]: Wide dispersal

O=S(=O)([O-])[O-].[Cu+2] [Cupric sulfate]
Effect on Peak VCD [1]: Increase | Effect on Harvest Titer [2]: Decrease | Process Performance Pattern [3]: Wide dispersal | Concentration Target (Range) for Increase of Harvest Titer [4]: 0 g/L | Concentration Target (Range) for Increase of Peak VCD [4]: +0.02 g/L | Concentration Target (Range) for Increase of Peak VCD and Harvest Titer [4]: 0 g/L

N[C@@H](CSSC[C@H](N)C(=O)O)C(=O)O [Cystine, L-cystine]
Effect on Peak VCD [1, 5]: Decrease | Effect on Harvest Titer [2, 5]: Decrease

O=C(O)CN(CCN(CC(=O)O)CC(=O)O)CC(=O)O [EDTA]
Effect on Peak VCD [1, 5]: Increase | Effect on Harvest Titer [2, 5]: Decrease

NCCO [Ethanolamine]
Effect on Peak VCD [1, 5]: Increase | Effect on Harvest Titer [2, 5]: Decrease

Nc1nc(=O)c2nc(CNc3ccc(C(=O)N[C@@H](CCC(=O)O)C(=O)O)cc3)cnc2[nH]1 [Folate]
Process Performance Pattern [3, 6]: Wide dispersal

O=C(CO)[C@@H](O)[C@H](O)[C@H](O)CO [Fructose]
Effect on Peak VCD [1, 5]: No change | Effect on Harvest Titer [2, 5]: No change

CC(=O)N[C@H]1C(O)O[C@H](CO)[C@H](O)[C@@H]1O (some centres unmarked) [GalNAc, N-acetylgalactosamine]
Effect on Peak VCD [1, 5]: No change | Effect on Harvest Titer [2, 5]: Decrease

CC(=O)N[C@H]1C(O)O[C@H](CO)[C@@H](O)[C@@H]1O (some centres unmarked) [GlcNAc, N-acetylglucosamine]
Effect on Peak VCD [1, 5]: Decrease | Effect on Harvest Titer [2, 5]: No change

N[C@@H](CCC(=O)N[C@@H](CS)C(=O)NCC(=O)O)C(=O)O [Glutathione, Glutathione, reduced]
Effect on Peak VCD [1, 5]: Decrease | Effect on Harvest Titer [2, 5]: Decrease

C[C@]12CCC(=O)C=C1CC[C@@H]1[C@@H]2[C@@H](O)C[C@@]2(C)[C@H]1CC[C@]2(O)C(=O)CO [Hydrocortisone, reference compound]
Effect on Peak VCD [1, 5]: No change | Effect on Harvest Titer [2, 5]: Increase

O=c1[nH]cnc2nc[nH]c12 [Hypoxanthine]
Concentration Range for Increase of Harvest Titer [4, 7]: (6.76 × 10^−4-8.68 × 10^−4) g/L | Concentration Range for Increase of Peak VCD and Harvest Titer [4, 7]: (6.76 × 10^−4-8.68 × 10^−4) g/L

C[C@H](N)C(=O)N[C@@H](CCC(N)=O)C(=O)O [L-alanyl-L-glutamine] (H-Ala-Gln-OH)
Effect on Peak VCD [1, 5]: Increase | Effect on Harvest Titer [2, 5]: No change

Cl.N[C@@H](Cc1cnc[nH]1)C(=O)O.O [L-histidine*HCl*H2O]
Concentration Target (Range) for Increase of Harvest Titer [4, 8]: +0.25 (0.22-0.28) g/L | Concentration Target (Range) for Increase of Peak VCD [4, 8]: +0.21 (0.18-0.23) g/L | Concentration Target (Range) for Increase of Peak VCD and Harvest Titer [4, 8]: +0.25 (0.22-0.28) g/L

CCCCC/C=C\C/C=C\CCCCCCCC(=O)O [Linoleic acid]
Effect on Peak VCD [1, 5]: No change | Effect on Harvest Titer [2, 5]: Increase

NC(=O)c1cccnc1 [Nicotinamide]
Effect on Peak VCD [1, 5]: Decrease | Effect on Harvest Titer [2, 5]: No change

Nc1ccc(C(=O)O)cc1 [PABA, Para-amino benzoic acid]
Effect on Peak VCD [1, 5]: Decrease | Effect on Harvest Titer [2, 5]: No change

O=P(O)(O)O [Potassium phosphate]
Effect on Peak VCD [1]: Increase | Effect on Harvest Titer [2]: Decrease | Process Performance Pattern [3]: Clustered | Concentration Target (Range) for Increase of Harvest Titer [4]: +0.09 (0.08-0.10) g/L | Concentration Target (Range) for Increase of Peak VCD [4]: +0.10 (0.09-0.12) g/L | Concentration Target (Range) for Increase of Peak VCD and Harvest Titer [4]: +0.10 (0.09-0.12) g/L

NCCCCN [Putrescine]
Effect on Peak VCD [1, 5]: Decrease | Effect on Harvest Titer [2, 5]: No change | Concentration Range for Increase of Harvest Titer [4, 7]: ( 1.06 × 10^−4-1.36 × 10^−4) g/L | Concentration Range for Increase of Peak VCD and Harvest Titer [4, 7]: (1.06 × 10^−4-1.36 × 10^−4) g/L

Cc1cc2nc3c(=O)[nH]c(=O)nc-3n(C[C@H](O)[C@H](O)[C@H](O)CO)c2cc1C [Riboflavin]
Effect on Peak VCD [1, 5]: Decrease | Effect on Harvest Titer [2, 5]: No change

CNCC(=O)O [Sarcosine]
Effect on Peak VCD [1, 5]: No change | Effect on Harvest Titer [2, 5]: Decrease

O=C([O-])CC(O)(CC(=O)[O-])C(=O)[O-].[Na+].[Na+].[Na+] [Sodium citrate]
Effect on Peak VCD [1, 5]: No change | Effect on Harvest Titer [2, 5]: No change

CC(=O)C(=O)[O-].[Na+] [Sodium pyruvate]
Effect on Peak VCD [1, 5]: Decrease | Effect on Harvest Titer [2, 5]: No change

NCCCCNCCCN [Spermidine, free base, Spermidine]
Concentration Range for Increase of Harvest Titer [4, 7]: (4.22 × 10^−5-5.42 × 10^−5) g/L | Concentration Range for Increase of Peak VCD and Harvest Titer [4, 7]: (4.22 × 10^−5-5.42 × 10^−5) g/L

NCCCNCCCCNCCCN [Spermine, free base, Spermine]
Concentration Range for Increase of Harvest Titer [4, 7]: (8.11 × 10^−5-1.04 × 10^−4) g/L | Concentration Range for Increase of Peak VCD and Harvest Titer [4, 7]: (8.11 × 10^−5-1.04 × 10^−4) g/L

NCCS(=O)(=O)O [Taurine]
Effect on Peak VCD [1, 5]: Decrease | Effect on Harvest Titer [2, 5]: Decrease

Cc1cn([C@H]2C[C@H](O)[C@@H](CO)O2)c(=O)[nH]c1=O [Thymidine]
Effect on Peak VCD [1, 5]: No change | Effect on Harvest Titer [2, 5]: Decrease | Process Performance Pattern [3, 6]: Wide dispersal | Concentration Range for Increase of Peak VCD [4, 7]: (1.75 × 10^−3-2.25 × 10^−3) g/L

Cc1ncc(CO)c(CO)c1O.Cl [Vitamin B-6, Pyridoxine hydrochloride]
Effect on Peak VCD [1, 5]: No change | Effect on Harvest Titer [2, 5]: Increase

O=C[C@H](O)[C@@H](O)[C@H](O)CO [Xylose]
Effect on Peak VCD [1, 5]: No change | Effect on Harvest Titer [2, 5]: Increase | Process Performance Pattern [3, 6]: Wide dispersal

Concanavalin A
Effect on Peak VCD [1, 5]: Decrease | Effect on Harvest Titer [2, 5]: Decrease

Cyanocobalamin [Vitamin B-12]
Effect on Peak VCD [1, 5]: No change | Effect on Harvest Titer [2, 5]: Decrease
